Data taken from US11591313B2, “Inhibitors of ectonucleotide pyrophosphatase/phosphodiesterase 1 (ENPP1) and methods of use thereof” (Stingray Therapeutics, Inc., priority 2020, dated 2023).
pIC50: −log10 of the molar value. Where a name gives a salt, the structure may show the parent alone. Read-outs that look alike come from different tables or passages of the source.

How the values were obtained:
[1] = biological target: T1, Recombinant Human ENPP-1 Protein (Homo sapiens (Human), UniProt P22413); experiment: ENPP1 Assay (TMP); assay type: biochemical
Procedure: Assay Buffer: 1 mM CaCl2, 0.2 mM ZnCl2, 50 mM Tris, pH 9.0
Enzyme: 1 ng/μL Recombinant Human ENPP-1 Protein (purified in-house)—Assay Cone.: 5 ng/well
A ten point serial dilution of drugs was prepared in 10× in assay buffer with the final assay concentrations starting at 10 μM, 3 μM, 1 μM, 0.3 μM . . . 0 μM. A dilution of DMSO was included as a control. The assay plate was set up as follows with each well in duplicate: 75 μL assay buffer+10 μL ENPP1 inhibitor or DMSO Dilutions+10 μL Substrate+5 μL Enzyme (5 ng). Both the enzyme and substrate were added to opposite sides of the well to ensure that there was no interaction until all wells had both components. The plate was then centrifuged gently for 10 seconds, followed by an incubation at 37° C. for 45 minutes. […] Data was analyzed using GraphPad Prism 8.0.

[2] = biological target: Recombinant Human ENPP-2/Autotaxin (rhENPP-2) (Homo sapiens (Human), UniProt Q13822); experiment: ENPP2 Assay; assay type: biochemical; conditions: substrate BPNPP, pH 8.5, 37° C. 10 minutes, absorbance at 400 nm
Procedure: Assay Buffer: 50 mM Tris, 10 mM CaCl2, 5 mM MgCl2, 0.02% Brij-35 (v/v), pH 8.5
Substrate: 20 mM Bis(p-Nitrophenyl) Phosphate Sodium Salt (BPNPP) (Sigma, Catalog #N3002)
Enzyme: 0.01 ng/μL Recombinant Human ENPP-2/Autotaxin (rhENPP-2) (R&D Catalog #5255-EN)
96-well clear assay plates
0 μM. […] PF8380 was used as a positive control for the assay. Data was analyzed using GraphPad Prism 8.0.

[3] = biological target: T1, Recombinant Human ENPP-1 Protein; assay type: binding; conditions: SYPRO Orange protein melt
Procedure: Recombinant Human ENPP-1 Protein (Purified In-House)
Assay Buffer (1 mM CaCl2, 0.2 mM ZnCl2, 50 mM Tris, pH 9.0)
5000×SYPRO Orange (ThermoFisher cat #S6651)
Each drug was prepared as a 1 Ox solution in the assay buffer and SYPRO Orange was diluted to 10× concentration in water. Wells were set up in duplicate in a 384-well PCR plate as follows: 14 μL assay buffer, 2 μL ENPP1 Inhibitor or DMSO, 2 μL (0.5 μg) ENPP1 protein. Each well was mixed and incubated on ice for 5 minutes. Post incubation, 2 μL of SYPRO Orange was mixed into each well and followed by a gentle centrifugation. The protein melt reaction was run using ViiA7 software with temperatures beginning at 25° C. and increasing by 0.05° C./s to the maximum temperature of 99° C.

T1 sequence (P22413 whole entry, looked up): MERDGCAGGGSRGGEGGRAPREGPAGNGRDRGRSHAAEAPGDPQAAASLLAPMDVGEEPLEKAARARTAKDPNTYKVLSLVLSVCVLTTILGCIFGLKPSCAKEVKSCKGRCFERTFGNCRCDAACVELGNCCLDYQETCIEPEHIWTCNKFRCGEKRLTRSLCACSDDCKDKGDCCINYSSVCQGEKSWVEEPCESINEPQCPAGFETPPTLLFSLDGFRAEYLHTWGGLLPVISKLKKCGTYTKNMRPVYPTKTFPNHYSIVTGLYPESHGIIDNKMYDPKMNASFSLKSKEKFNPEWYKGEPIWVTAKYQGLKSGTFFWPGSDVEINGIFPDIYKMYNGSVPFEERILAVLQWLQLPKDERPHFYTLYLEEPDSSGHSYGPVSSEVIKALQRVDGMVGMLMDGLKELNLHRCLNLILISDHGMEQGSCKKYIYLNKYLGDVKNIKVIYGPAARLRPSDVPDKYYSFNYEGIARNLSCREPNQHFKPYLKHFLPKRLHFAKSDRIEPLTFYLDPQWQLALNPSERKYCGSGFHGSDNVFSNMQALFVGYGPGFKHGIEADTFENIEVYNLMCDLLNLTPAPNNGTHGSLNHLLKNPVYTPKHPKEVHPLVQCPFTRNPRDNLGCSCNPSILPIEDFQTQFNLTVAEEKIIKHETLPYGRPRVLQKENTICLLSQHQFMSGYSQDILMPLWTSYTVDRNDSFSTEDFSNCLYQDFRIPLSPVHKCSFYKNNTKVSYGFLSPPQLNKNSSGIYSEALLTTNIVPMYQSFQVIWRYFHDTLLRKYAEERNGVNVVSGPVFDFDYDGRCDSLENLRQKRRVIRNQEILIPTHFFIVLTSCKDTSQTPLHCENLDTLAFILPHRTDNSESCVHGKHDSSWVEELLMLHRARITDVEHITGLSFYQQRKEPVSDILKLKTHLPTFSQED

Question: `COc1cc2ncc(C#N)c(N3CCCC(NS(N)(=O)=O)CC3)c2cc1OC` (stereo not shown) [Compound 042, N-(1-(3-cyano-6,7-dimethoxyquinolin-4-yl)azepan-4-yl)sulfamoylamine] was tested. Which pIC50 ([1]; read-out: IC50) did it give?
Answer: 7.39

Question: What does the source list for `COc1cc2ncnc(N3CCCN(S(N)(=O)=O)CC3)c2cc1OC.Cl` [Compound 015-HCl, 4-(6,7-dimethoxyquinazolin-4-yl)-1,4-diazepane-1-sulfonamide hydrochloride salt]?
Answer: pIC50 [2]: < 6.00; pIC50 ([1]; hydrochloride salt, read-out: IC50): 8.22; Thermal Shift @10 uM (dTm (o C.)) [3]: $$$ ($$$ >3o C.)

Question: With `COc1cc2ncnc(N3CCN(S(N)(=O)=O)CC(F)(F)C3)c2cc1OC` [Compound 029, 4-(6,7-dimethoxyquinazolin-4-yl)-6,6-difluoro-1,4-diazepane-1-sulfonamide hydrochloride] as the compound, how does the pIC50 ([1]; read-out: IC50) read?
Answer: 8.92

Question: Which “Thermal Shift @10 uM (dTm (o C.))” value [3] does the source give for `COc1cc2ncnc(N3CCCN(CCNS(N)(=O)=O)CC3)c2cc1OC.Cl` [Compound 063] here?
Answer: $$ ($$ <3o C.)

Question: Which “Thermal Shift @10 uM (dTm (o C.))” value [3] does the source give for `COc1cc2ncnc(N3CCCN(C(=O)CNS(N)(=O)=O)CC3)c2cc1OC.Cl` [Compound 064] here?
Answer: $$ ($$ <3o C.)

Question: With `COc1cc2ncnc(NCCCNS(N)(=O)=O)c2cc1OC` [Compound 055, N-(3-((6,7-dimethoxyquinazolin-4-yl)amino)propyl) sulfamide hydrochloride] as the compound, how does the “Thermal Shift @10 uM (dTm (o C.))” value [3] read?
Answer: $$ ($$ <3o C.)

Question: How did the pIC50 [1] turn out when `COc1cc2ncc(C#N)c(N3CCCC(CCNS(N)(=O)=O)CC3)c2cc1OC` (racemic) [Compound 038] was run?
Answer: 9.03

Question: `COc1cc2c(N3CCCN(S(N)(=O)=O)CC3)ncnc2cc1-c1cn[nH]c1` [Compound 020, 4-(6-methoxy-7-(1H-pyrazol-4-yl)quinazolin-4-yl)-1,4-diazepane-1-sulfonamide] was tested. Which pIC50 ([1]; read-out: IC50) did it give?
Answer: 7.00

Question: With `COc1cc2ncnc(N3CCCN(C(=O)CNS(N)(=O)=O)CC3)c2cc1OC.Cl` [Compound 064, (N-(2-(4-(6,7-dimethoxyquinazolin-4-yl)-1,4-diazepan-1-yl)-2-oxoethyl)sulfamide hydrochloride] as the compound, how does the pIC50 [1] read?
Answer: 7.14

Question: How did the “Thermal Shift @10 uM (dTm (o C.))” value [3] turn out when `COc1cc2ncnc(OCCCCNS(N)(=O)=O)c2cc1OC` [Compound 053] was run?
Answer: $$$ ($$$ >3o C.)

Question: `COc1ccc2ncnc(N3CCCN(S(N)(=O)=O)CC3)c2c1` [Compound 022, 4-(6-methoxyquinazolin-4-yl)-1,4-diazepane-1-sulfonamide] was tested. Which pIC50 ([1]; read-out: IC50) did it give?
Answer: 6.93

Question: Which “Thermal Shift @10 uM (dTm (o C.))” value [3] does the source give for `COc1cc2ncnc(NCCCCCNS(N)(=O)=O)c2cc1OC` [Compound 057] here?
Answer: $$ ($$ <3o C.)

Question: `COc1cc2ncnc(N3CCCN(C(=O)CNS(N)(=O)=O)CC3)c2cc1OC` [Compound 065] was tested. Which pIC50 [2] did it give?
Answer: < 6.00

Question: What about the pIC50 ([1]; read-out: IC50) of the same compound?
Answer: 8.11

Question: What about the “Thermal Shift @10 uM (dTm (o C.))” value [3] of the same compound?
Answer: $$$ ($$$ >3o C.)

Question: `COc1cc2ncnc(NCCCCNS(N)(=O)=O)c2cc1OC` [Compound 056] was tested. Which pIC50 [2] did it give?
Answer: < 6.00

Question: And the “Thermal Shift @10 uM (dTm (o C.))” value [3]?
Answer: $$ ($$ <3o C.)

Question: What does the source list for `COc1cc2ncnc(N3CCCN(CCNS(N)(=O)=O)CC3)c2cc1OC` [Compound 062]?
Answer: pIC50 [2]: < 6.00; Thermal Shift @10 uM (dTm (o C.)) [3]: $$ ($$ <3o C.)

Question: `COc1cc2ncnc(N3CCCN(S(N)(=O)=O)CC3)c2cc1OC` [Compound 015-MES, 4-(6,7-dimethoxyquinazolin-4-yl)-1,4-diazepane-1-sulfonamide methanesulfonate] was tested. Which pIC50 ([1]; methanesulfonate, read-out: IC50) did it give?
Answer: 8.20

Question: `COc1cc2ncnc(-c3ccc(NCCNS(N)(=O)=O)nc3)c2cc1OC.Cl` [Compound 048] was tested. Which pIC50 [2] did it give?
Answer: < 6.00

Question: And the “Thermal Shift @10 uM (dTm (o C.))” value [3]?
Answer: $$ ($$ <3o C.)

Question: `COc1cc2ncnc(N3CC4CC(C3)N(S(N)(=O)=O)C4)c2cc1OC` (stereo not shown) [Compound 026, 3-(6,7-dimethoxyquinazolin-4-yl)-3,6-diazabicyclo[3.2.1]octane-6-sulfonamide hydrochloride] was tested. Which pIC50 ([1]; read-out: IC50) did it give?
Answer: 6.93

Question: Which results are given for `COc1cc2ncnc(N3CCCC(CCNS(N)(=O)=O)CC3)c2cc1OC` (stereo not shown) [Compound 049]?
Answer: pIC50 [2]: < 6.00; Thermal Shift @10 uM (dTm (o C.)) [3]: $$$ ($$$ >3o C.)

Question: `COc1cc2ncnc(N3CCCN(S(N)(=O)=O)CC3)c2cc1OC` [Compound 015, 4-(6,7-dimethoxyquinazolin-4-yl)-1,4-diazepane-1-sulfonamide] was tested. Which pIC50 ([1]; read-out: IC50) did it give?
Answer: 7.49

Question: With `COc1cc2ncnc(N3CCCN(CCNS(N)(=O)=O)CC3)c2cc1OC.Cl` [Compound 063, (N-(2-(4-(6,7-dimethoxyquinazolin-4-yl)-1,4-diazepan-1-yl)ethyl)sulfamide hydrochloride] as the compound, how does the pIC50 ([1]; read-out: IC50) read?
Answer: 7.17

Question: How did the “Thermal Shift @10 uM (dTm (o C.))” value [3] turn out when `COc1cc2ncnc(OCCCCCNS(N)(=O)=O)c2cc1OC` [Compound 054] was run?
Answer: $$ ($$ <3o C.)

Question: Which results are given for `COc1cc2ncnc(CCCCCNS(N)(=O)=O)c2cc1OC` [Compound 050]?
Answer: pIC50 [2]: < 6.00; Thermal Shift @10 uM (dTm (o C.)) [3]: $$ ($$ <3o C.)

Question: Which “Thermal Shift @10 uM (dTm (o C.))” value [3] does the source give for `COc1cc2ncnc(N3CCCC(CCNS(N)(=O)=O)CC3)c2cc1OC` (stereo not shown) [Compound 060, N-(2-(1-(6,7-dimethoxyquinazolin-4-yl)azepan-4-yl)ethyl)sulfamide] here?
Answer: $$$ ($$$ >3o C.)

Question: How did the “Thermal Shift @10 uM (dTm (o C.))” value [3] turn out when `COc1cc2ncnc(SCCCCNS(N)(=O)=O)c2cc1OC` [Compound 058, N-(4-((6,7-dimethoxyquinazolin-4-yl)thio)butyl) sulfamide hydrochloride] was run?
Answer: $$$ ($$$ >3o C.)

Question: For `COc1cc2ncnc(N(C)CCCCCNS(N)(=O)=O)c2cc1OC` [Compound 061, N-(5-((6,7-dimethoxyquinazolin-4-yl) (methyl)amino)pentyl) sulfamide], which “Thermal Shift @10 uM (dTm (o C.))” value [3] is on record?
Answer: $$ ($$ <3o C.)

Question: With `COc1cc2ncnc(-c3ccc(CNS(N)(=O)=O)nc3)c2cc1OC` [Compound 047, N-((5-(6,7-dimethoxyquinazolin-4-yl)pyridin-2-yl)methyl) sulfamide] as the compound, how does the pIC50 [2] read?
Answer: < 6.00

Question: What about the “Thermal Shift @10 uM (dTm (o C.))” value [3] of the same compound?
Answer: $$ ($$ <3o C.)
